Results on 70 molecules are retold here after ChEMBL document CHEMBL4421722, “Inhibitors of protein prenyltransferases” (2013).

The species entered for this assay is Rattus norvegicus. The assay can be described thus: Inhibition of rat recombinant geranylgeranyltransferase type I expressed in Escherichia coli assessed as residual enzyme activity for geranylgeranylation of K-Ras4B at 50 uM incubated for 30 mins in presence of [3H]GGPP by scintillation counting assay relative to control.
As to `COc1ccc([C@@H]2C[C@@H](SCC(C)C)[C@H](C(=O)O)CN2S(=O)(=O)c2ccc(Cl)cc2)cc1`, the Activity was found to be 75.6%.

For `Cc1ccc(S(=O)(=O)N2[C@@H](c3ccc(C(C)(C)C)cc3)C(C(=O)O)=CC[C@H]2c2ccc(Cl)cc2)cc1`, the Activity is 102%.

On to `Cc1ccc([C@@H]2C[C@@H](Sc3ccccc3)[C@H](C(=O)O)CN2S(=O)(=O)c2ccc(C)cc2)cc1`, for which the Activity stood at 63.2%.

As to `COc1ccc([C@@H]2C[C@@H](Sc3ccccc3)[C@H](C(=O)O)CN2S(=O)(=O)c2ccc(C)cc2)cc1`, the Activity was 79.6%.

Turning to `Cc1ccccc1S(=O)(=O)N1C[C@@H](C(=O)O)[C@H](SCc2ccc(C(C)(C)C)cc2)C[C@H]1c1ccc(Cl)cc1`, the Activity turned out to be 43.1%.

`CCCCCS[C@@H]1C[C@@H](c2ccc(C)cc2)N(S(=O)(=O)c2ccc(Cl)cc2)C[C@H]1C(=O)O`: the Activity is 75.8%.

On to `Cc1ccc(S(=O)(=O)N2C[C@@H](C(=O)O)[C@H](SCc3ccc(Cl)cc3)C[C@H]2c2ccccc2F)cc1`, for which the Activity was 61.4%.

Regarding `CCCCS[C@@H]1C[C@@H](c2ccccc2)N(S(=O)(=O)c2ccc(C)cc2)C[C@H]1C(=O)O`, the Activity is 93.4%.

With `CCS[C@@H]1C[C@@H](c2ccc(Cl)cc2)N(S(=O)(=O)c2ccc(C)cc2)C[C@H]1C(=O)O`, the Activity is 87.8%.

With `C=CCS[C@@H]1C[C@@H](c2ccc(Cl)cc2)N(S(=O)(=O)c2ccc(C)cc2)C[C@H]1C(=O)O`, the Activity came to 49.1%.

For `CCCS[C@@H]1C[C@@H](c2ccccc2)N(S(=O)(=O)c2ccc(C)cc2)C[C@H]1C(=O)O`, the Activity was 75.7%.

Regarding `CS(=O)(=O)N1[C@@H](c2ccc(Cl)cc2)C(C(=O)O)=CC[C@H]1c1ccc(Cl)cc1`, the Activity amounted to 55%.

In the case of `COc1ccc([C@@H]2C[C@@H](SC3CCCC3)[C@H](C(=O)O)CN2S(=O)(=O)c2ccc(C)cc2)cc1`, the Activity was 91.5%.

`CCCCCCS[C@@H]1C[C@@H](c2ccc(C)cc2)N(S(=O)(=O)c2ccccc2C)C[C@H]1C(=O)O`: the Activity came to 69.9%.

On to `CCc1ccc([C@@H]2CC=C(C(=O)O)[C@H](c3ccc(Cl)cc3)N2S(=O)(=O)c2ccc(C)cc2)cc1`, for which the Activity turned out to be 89.8%.

As to `COc1ccc([C@@H]2C[C@@H](Sc3ccc(Cl)cc3)[C@H](C(=O)O)CN2S(=O)(=O)c2ccc(C)cc2)cc1`, the Activity was 55.3%.

Regarding `COc1ccc(S[C@@H]2C[C@@H](c3ccc4c(c3)OCO4)N(S(=O)(=O)c3ccc(C)cc3)C[C@H]2C(=O)O)cc1`, the Activity is 100%.

With `Cc1ccc([C@@H]2C[C@@H](SCCC(C)C)[C@H](C(=O)O)CN2S(=O)(=O)c2ccccc2C)cc1`, the Activity was 75.2%.

For the molecule `CS(=O)(=O)N1[C@@H](c2cccc(Br)c2)C(C(=O)O)=CC[C@H]1c1ccc(Cl)cc1`, the Activity amounted to 50.4%.

As for `Cc1ccc(S(=O)(=O)N2[C@@H](c3cccc(Br)c3)C(C(=O)O)=CC[C@H]2c2ccc(Cl)cc2)cc1`, the Activity worked out at 56.6%.

For the molecule `Cc1ccc([C@H]2C(C(=O)O)=CC[C@@H](c3ccccc3F)N2S(=O)(=O)c2ccc(C)cc2)cc1`, the Activity amounted to 92.9%.

For `Cc1ccc([C@H]2C(C(=O)O)=CC[C@@H](c3ccc(Cl)cc3)N2S(=O)(=O)c2ccc(Cl)cc2)cc1`, the Activity stood at 53.9%.

On to `Cc1ccc(S(=O)(=O)N2[C@@H](c3ccc(F)cc3)C(C(=O)O)=CC[C@H]2c2ccc(Cl)cc2)cc1`, for which the Activity amounted to 62%.

As to `Cc1ccc([C@H]2C(C(=O)O)=CC[C@@H](c3ccc4c(c3)OCO4)N2S(=O)(=O)c2ccc(C)cc2)cc1`, the Activity came to 75.7%.

For the molecule `CC(=O)C1=CC[C@@H](c2ccc(C)cc2)N(S(C)(=O)=O)C1`, the Activity was determined as 108%.

For `CCS[C@@H]1C[C@@H](c2ccc(Cl)cc2)N(S(=O)(=O)c2ccccc2C)C[C@H]1C(=O)O`, the Activity is 63.2%.

As for `Cc1ccc(S(=O)(=O)N2[C@@H](c3cccc(C)c3)C(C(=O)O)=CC[C@H]2c2cccc(F)c2)cc1`, the Activity stood at 60.5%.

Take `CCc1ccc([C@@H]2C[C@@H](Sc3ccc(Cl)cc3)[C@H](C(=O)O)CN2S(=O)(=O)c2ccc(C)cc2)cc1`: the Activity came out at 72%.

Regarding `CCCS[C@@H]1C[C@@H](c2ccc(Cl)cc2)N(S(=O)(=O)c2ccccc2C)C[C@H]1C(=O)O`, the Activity was 53.3%.

With `CS(=O)(=O)N1[C@@H](c2cccc(Cl)c2)C(C(=O)O)=CC[C@H]1c1ccc(Cl)cc1`, the Activity stood at 60.3%.

With `C=CCS[C@@H]1C[C@@H](c2ccc(C)cc2)N(S(=O)(=O)c2ccc(C)cc2)C[C@H]1C(=O)O`, the Activity was 94.1%.

Consider `COc1ccc([C@@H]2C[C@@H](SCc3ccc(C(C)(C)C)cc3)[C@H](C(=O)O)CN2S(=O)(=O)c2ccc(C)cc2)cc1OC`, for which the Activity came out at 78.9%.

Consider `COc1ccc([C@@H]2CC=C(C(=O)O)[C@H](c3ccc(Br)cc3)N2S(=O)(=O)c2ccccc2)cc1`, for which the Activity came out at 82.3%.

Consider `COc1ccc([C@@H]2C[C@@H](SC3CCCC3)[C@H](C(=O)O)CN2S(=O)(=O)c2ccccc2C)cc1`, for which the Activity worked out at 98.2%.

Turning to `Cc1ccc(S(=O)(=O)N2[C@@H](c3ccc(F)cc3)C(C(=O)O)=CC[C@H]2c2cccs2)cc1`, the Activity was found to be 62.3%.

`COc1ccc([C@@H]2C[C@@H](SCc3ccc(C(C)(C)C)cc3)[C@H](C(=O)O)CN2S(=O)(=O)c2ccccc2)cc1`: the Activity came out at 53%.

For the molecule `CCCCCS[C@@H]1C[C@@H](c2ccc(OC)cc2)N(S(=O)(=O)c2ccc(C)cc2)C[C@H]1C(=O)O`, the Activity came to 86.7%.

For the molecule `COc1ccc([C@@H]2C[C@@H](Sc3ccc(C)cc3)[C@H](C(=O)O)CN2S(=O)(=O)c2ccccc2C)cc1`, the Activity was 78.5%.

In the case of `Cc1ccc(S(=O)(=O)N2[C@@H](c3ccc(Cl)cc3)C(C(=O)O)=CC[C@H]2c2ccc3c(c2)OCO3)cc1`, the Activity was 73.4%.

For `Cc1ccc(S(=O)(=O)N2[C@@H](c3cccc(Br)c3)C(C(=O)O)=CC[C@H]2c2ccc(C(C)C)cc2)cc1`, the Activity turned out to be 41.1%.

Turning to `Cc1ccc([C@@H]2CC=C(C(=O)O)[C@H](c3cccc(F)c3)N2S(=O)(=O)c2ccc(Cl)cc2)cc1`, the Activity amounted to 54.5%.

Take `COc1cccc([C@@H]2C[C@@H](SC3CCCC3)[C@H](C(=O)O)CN2S(=O)(=O)c2ccc(C)cc2)c1`: the Activity is 113%.

In the case of `COc1ccc([C@@H]2C[C@@H](SCc3ccc(Cl)cc3)[C@H](C(=O)O)CN2S(=O)(=O)c2ccc(C)cc2)cc1OC`, the Activity was found to be 69.1%.

Regarding `Cc1ccc([C@H]2C(C(=O)O)=CC[C@@H](c3cccc(C)c3)N2S(=O)(=O)c2ccc(C)cc2)cc1`, the Activity came to 82.4%.

With `CCCCCS[C@@H]1C[C@@H](c2ccc(C)cc2)N(S(=O)(=O)c2ccccc2)C[C@H]1C(=O)O`, the Activity was 81%.

As for `COc1cccc([C@@H]2C[C@@H](SCc3ccc(Cl)cc3)[C@H](C(=O)O)CN2S(=O)(=O)c2ccc(C)cc2)c1`, the Activity came to 34.4%.

For `Cc1ccc([C@@H]2C[C@@H](SCc3ccc(C(C)(C)C)cc3)[C@H](C(=O)O)CN2S(=O)(=O)c2ccccc2)cc1`, the Activity was determined as 68.1%.

Regarding `COc1ccc([C@@H]2C=CCCN2S(=O)(=O)c2ccc(C)cc2)cc1`, the Activity was determined as 99.7%.

Regarding `Cc1ccc(S(=O)(=O)N2[C@@H](c3cccc(F)c3)C(C(=O)O)=CC[C@H]2c2ccccc2)cc1`, the Activity is 63.7%.

For the molecule `Cc1ccc([C@H]2C(C(=O)O)=CC[C@@H](c3ccccc3)N2S(=O)(=O)c2ccc(C)cc2)cc1`, the Activity turned out to be 87.5%.

In the case of `Cc1ccc([C@@H]2C[C@@H](Sc3ccc(Cl)cc3)[C@H](C(=O)O)CN2S(C)(=O)=O)cc1`, the Activity worked out at 105%.

Turning to `Cc1ccc(S[C@@H]2C[C@@H](c3ccc4c(c3)OCO4)N(S(=O)(=O)c3ccc(C)cc3)C[C@H]2C(=O)O)cc1`, the Activity was found to be 77.8%.

As to `CCOc1ccc([C@@H]2CC=C(C(=O)O)[C@H](c3ccc(C)cc3)N2S(=O)(=O)c2ccc(C)cc2)cc1`, the Activity was 63.2%.

For `Cc1ccc([C@@H]2C[C@@H](Sc3ccccc3)[C@H](C(=O)O)CN2S(=O)(=O)c2ccccc2)cc1`, the Activity was 92%.

In the case of `COc1ccc([C@@H]2CC=C(C(=O)O)[C@H](c3ccc(C)cc3)N2S(=O)(=O)c2ccc(Cl)cc2)cc1`, the Activity came out at 72.5%.

As to `CCCCS[C@@H]1C[C@@H](c2ccc(C)cc2)N(S(=O)(=O)c2ccc(Cl)cc2)C[C@H]1C(=O)O`, the Activity was found to be 49.2%.

On to `COc1ccc([C@@H]2C[C@@H](SCc3ccc(Cl)cc3)[C@H](C(=O)O)CN2S(=O)(=O)c2ccc(C)cc2)cc1`, for which the Activity is 40.7%.

Take `CCS[C@@H]1C[C@@H](c2ccc(C)cc2)N(S(C)(=O)=O)C[C@H]1C(=O)O`: the Activity worked out at 94.8%.

Regarding `Cc1ccc(S(=O)(=O)N2[C@@H](c3ccc(Cl)cc3)C(C(=O)O)=CC[C@H]2c2cccc(F)c2)cc1`, the Activity was found to be 63.5%.

`Cc1ccc([C@@H]2C[C@@H](SCc3ccc(Cl)cc3)[C@H](C(=O)O)CN2S(C)(=O)=O)cc1`: the Activity was determined as 51.1%.

`CS(=O)(=O)N1[C@@H](c2ccc(Br)cc2)C(C(=O)O)=CC[C@H]1c1ccccc1`: the Activity was 83.6%.

Regarding `CC(=O)C1=CC[C@@H](c2ccc(C)cc2)N(S(=O)(=O)c2ccccc2)C1`, the Activity was 99%.

In the case of `Cc1ccc([C@@H]2CC=C(C(=O)O)[C@H](c3ccc(Br)cc3)N2S(=O)(=O)c2ccc(Cl)cc2)cc1`, the Activity was found to be 69.5%.

Regarding `CCCCCCS[C@@H]1C[C@@H](c2cccc(OC)c2)N(S(=O)(=O)c2ccc(C)cc2)C[C@H]1C(=O)O`, the Activity was 80.5%.

`Cc1cccc([C@H]2C(C(=O)O)=CC[C@@H](c3ccc(Cl)cc3)N2S(=O)(=O)c2ccc(Cl)cc2)c1`: the Activity came to 89.5%.

On to `CCOc1ccc([C@@H]2C[C@@H](SCC(C)C)[C@H](C(=O)O)CN2S(=O)(=O)c2ccc(C)cc2)cc1`, for which the Activity came out at 83.1%.

Turning to `COc1ccc([C@@H]2CC=C(C(=O)O)[C@H](c3ccc(C(C)(C)C)cc3)N2S(=O)(=O)c2ccc(C)cc2)cc1`, the Activity was determined as 91.1%.

Take `COc1ccc([C@@H]2C[C@@H](SCCC(C)C)[C@H](C(=O)O)CN2S(=O)(=O)c2ccc(C)cc2)cc1`: the Activity was found to be 90%.

Take `Cc1ccc([C@@H]2CC=C(C(=O)O)[C@H](c3cccc(C)c3)N2S(=O)(=O)c2ccccc2C)cc1`: the Activity stood at 53.4%.

For `COc1ccc([C@@H]2CC=C(C(=O)O)[C@H](c3cccc(Cl)c3)N2S(=O)(=O)c2ccccc2)cc1`, the Activity was determined as 56.1%.
